Assay results: patent publication US11622951B2, “Alpha-aminoadipate for treatment of vision loss and restoring sight” (The Schepens Eye Research Institute, Inc., priority 2013, dated 2023)
Entries after “also recorded” stand apart in the source; their conditions may differ.

Columns and labels:
Type in all cases: in vivo, mouse
[1] = tested on: retinal neurons; test: Retinal neuron morphology and lamina structure after injection (electron microscopy, Nissl, recoverin, syntaxin)
Protocol: (§1) Mice were anesthetized by intraperitoneal injection of ketamine (62.5 mg/kg) and xylazine (12.5 mg/kg) and transcardially perfused with phosphate buffered saline (PBS) followed by 4% paraformaldehyde in PBS. Retinal flat-mounts or transverse retinal sections (14 μm) were preblocked with PBS containing 3% bovine serum albumin (Sigma-Aldrich, St. Louis, Mo.) and 0.3% Triton X (Sigma-Aldrich) and incubated, first, with primary antibody overnight, and then with secondary antibody for 1 hour at room temperature. The following antibodies were used: Cy3-conjugated monoclonal antibody against GFAP (1:1000; Sigma), Brn-3b (1:200; Santa Cruz Biotechnology; Santa Cruz, Calif.), mouse anti-rhodopsin (1:4000; Rho1D4), chick anti-cone-opsin (1:300), and Cy-2, Cy-3 or Cy-5-conjugated secondary antibody (Jackson ImmunoResearch; West Grove, Pa.). Assessment of morphological integration were quantified by counting EGFP+ cells located outside of transplanted cell clusters in retinal whole-mounts. Statistical significance was determined by either the two tailed student t test or ANOVA.
Mice were sacrificed 3 days after receiving the injection of α-AA (1 μg/μl) or saline as controls by injection of overdose of ketamine/xylazine followed by cervical dislocation, and the eyeballs were dissected, fixed with Karnovsky's fixative (pH 7.4) for 24 h. The quadrants of the eyes that received subretinal injection were dissected and embedded in Epon-Araldite. Semi-thin sections (1-2 μm) were stained with phenylenediamine phase staining. The sections were examined and photographed with a transmission electron microscope (EM410; Philips; Eindhoven, The Netherlands). Ten randomly selected retinal sections of each eye were photographed at 1900× magnification, and all Müller glial nuclei in the photomicrograph were counted.
Retinal sections were examined under electron microscopy, in which Müller glia were identified by their characteristic angular nuclei, dense chromatin and dark perinuclear cytoplasm (FIG. 1e-h). […]

[2] = tested on: grafted retinal progenitor cells; test: Integration of grafted EGFP+ retinal progenitor cells into pretreated wild-type host retina
Protocol: as §1
At 2 days before transplantation, 2 μl of a solution containing either α-AA (1 μg/μl) or saline (control) was injected unilaterally into the subretinal space of recipient wild-type or Gnat1^−/− mice (>2 months old). The procedure for donor cell preparation was essentially as described by Kinouchi et al, 2003, Nat Neurosci, 6:863-868. Briefly, retinal progenitor cells were isolated from postnatal day 0 (P0) EGFP transgenic mice. […]
If transient disruption of retinal glia with α-AA promotes morphological integration of grafted retinal progenitors in vivo was next investigated. […] Thus, in the following studies, cell transplantation was performed at day 2 after α-AA pretreatment when temporal disruption of residential glial structure by α-AA was detected that effectively ameliorates the host barrier to cell integration and promotes grafted cell migration into the host retina.

[3] = tested on: rod photoreceptor cell function; test: Scotopic ERG a-wave after retinal progenitor transplantation in Gnat1-/- mice; conditions: pretreatment plus retinal progenitor cell transplantation, 21 days post transplantation
Protocol: At 2 days before transplantation, 2 μl of a solution containing either α-AA (1 μg/μl) or saline (control) was injected unilaterally into the subretinal space of recipient wild-type or Gnat1^−/− mice (>2 months old). The procedure for donor cell preparation was essentially as described by Kinouchi et al, 2003, Nat Neurosci, 6:863-868. Briefly, retinal progenitor cells were isolated from postnatal day 0 (P0) EGFP transgenic mice. Cell suspensions containing approximately 1×10^6 dissociated cells were injected slowly through a glass micropipette into the subretinal space of pretreated recipient mice through the same injection site where either saline or α-AA had been injected 2 days prior.
At 21 days post transplantation, Gnat1−/− mice that had received either α-AA or saline-pretreatment followed by retinal progenitor cell transplantation were analyzed by full-field ERG. Mice were dark adapted for 12 hours and then anesthetized by intraperitoneal injection of ketamine (62.5 mg/kg) and xylazine (12.5 mg/kg). […] A total of six scans were taken and averaged; the a-wave amplitudes were measured from baseline to the peak in the cornea-negative direction. […] Statistical significance was calculated using the Student's t test or ANOVA. […]

[4] = tested on: cone photoreceptor cells; test: Cone opsin immunohistochemistry of retinal sections of Rho-/- mice
Protocol: To determine if αAA induces functional neuroregeneration in Rho^−/− mice, αAA was injected subretinally into the left eyes of 6 week-old Rho^−/− mice, while their contralateral eyes were injected with saline and served as controls. After a 4 week survival period to allow regeneration of new photoreceptors, mouse ERG was measured in both eyes and then performed immunohistochemistry to identify photoreceptor cells. Rho^−/− mice lack the rod photoreceptor cell component or ERG a-wave. As cones consist of ˜3% of photoreceptors in mice, it is difficult to assess cone action a-wave; therefore, flicker ERG photometry under cone-isolation conditions was used to measure cone functions. […] The ERG b-wave arises from neural activity downstream of photoreceptors, its presence in the αAA treated eye has a very important implication: not only is the treatment creating new or preserving existing photoreceptors, such photoreceptors are integrating into the existing retinal circuitry in such a way as to elicit activity in downstream neurons (most likely bipolar cells). […] Consistent with the presence of ERG b-waves in αAA-treated eye, light-elicited spiking responses in some of the ganglion cells were observed (n=4/9) (FIG. 15 A, B). […] In contrast, no light-elicited responses in ganglion cells were recorded from the saline-injected eyes (n=4/4, FIG. 14C). […]

## NC(CCCC(=O)O)C(=O)O (stereo not drawn) [α-AA, alpha-aminoadipate]
[1]; 3 days after subretinal injection
  retinal neuron morphology (electron microscopy): No abnormality in retinal neuron morphology
[1]; day 3 after injection, vs saline-injected controls
  morphology and lamina structure (recoverin, syntaxin immunolabeling): No apparent changes; also recorded: No significant difference
[1]; mouse, in vivo
  neuronal toxicity: No neuronal toxicity
[2]; transplantation performed after day 5 post treatment
  number of cells repopulated the host retina: drastically diminished
[2]; wild-type hosts, three weeks post transplantation, vs saline-treated or untreated retinas
  increase in number of engrafted cells bearing long neurites (>3 body length): 7-11 fold
[2]; wild-type hosts, transplantation day 2 after pretreatment, three weeks post transplantation, vs saline-treated or untreated retinas
  increase in the number of EGFP+ cells repopulated into the host retina: 3-5 fold
[3]
  ERG a-wave (rod photoreceptor response): a typical a-wave was detected
[4]; single intraocular injection
  retinal neuron damage: does not cause apparent retinal neuron damage
[4]; single subretinal injection at 6 weeks old, vs saline-treated control
  number of cone photoreceptor cells: increased number of cone photoreceptor cells
